# Target: Mitogen-activated protein kinase 8 (Homo sapiens, UniProt P45983)
# Experiment: ATF-2 Phosphorylation Assay
# Mitogen-activated protein kinase 8, sequence (P45983 whole entry): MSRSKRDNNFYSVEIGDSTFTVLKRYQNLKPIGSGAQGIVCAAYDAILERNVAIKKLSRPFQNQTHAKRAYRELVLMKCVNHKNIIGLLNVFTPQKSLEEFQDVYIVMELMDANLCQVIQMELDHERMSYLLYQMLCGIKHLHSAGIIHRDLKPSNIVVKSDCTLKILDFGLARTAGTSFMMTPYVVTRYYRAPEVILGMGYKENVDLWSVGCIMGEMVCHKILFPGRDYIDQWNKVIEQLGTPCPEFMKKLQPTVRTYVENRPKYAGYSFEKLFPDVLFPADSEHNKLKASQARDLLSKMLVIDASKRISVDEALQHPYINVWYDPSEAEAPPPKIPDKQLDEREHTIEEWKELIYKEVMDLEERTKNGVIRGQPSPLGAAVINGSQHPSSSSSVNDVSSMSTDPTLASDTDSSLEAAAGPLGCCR
smiles,measurement,value
CCOc1cccc(NC(C)=O)n1 [N-(6-ethoxypyridin-2-yl)acetamide],IC50,> 10 µM

# From BindingDB's records for doi:10.1021/jm060199b (Abbott Laboratories, 2006)
